The text below walks through data of ChEMBL document CHEMBL3991601, “The target landscape of clinical kinase drugs” (Science, 2017).

SMILES strings stand for the structures. Counter-ions that a name gives are not always drawn. Activity calls are given as the source filed them. Rule as the data show it, for most assays here: actives have a measured Kd and inactives only a lower limit.

Targets include Aurora kinase B (Homo sapiens, UniProt Q96GD4); Actin-related protein 2 (Homo sapiens, UniProt P61160); LIM domain kinase 2 (Homo sapiens, UniProt P53671).
Experiment [1] deals with Calcium/calmodulin-dependent protein kinase type II subunit delta (Homo sapiens, UniProt Q13557).
Experiment [2] concerns the target Mitogen-activated protein kinase 8 (Homo sapiens, UniProt P45983).
Experiment [3] concerns the target Serine/threonine-protein kinase N1 (Homo sapiens, UniProt Q16512).
Experiment [4] has as its target Ribosomal protein S6 kinase alpha-1 (Homo sapiens, UniProt Q15418).
For experiment [5], the target named is 26S proteasome regulatory subunit 6B (Homo sapiens, UniProt P43686).
Experiment [6] deals with Tyrosine-protein kinase JAK1 (Homo sapiens, UniProt P23458).
Experiment [7] addresses T1, Serine/threonine-protein kinase PLK4 (Homo sapiens, UniProt O00444).
T1 sequence (O00444 whole entry): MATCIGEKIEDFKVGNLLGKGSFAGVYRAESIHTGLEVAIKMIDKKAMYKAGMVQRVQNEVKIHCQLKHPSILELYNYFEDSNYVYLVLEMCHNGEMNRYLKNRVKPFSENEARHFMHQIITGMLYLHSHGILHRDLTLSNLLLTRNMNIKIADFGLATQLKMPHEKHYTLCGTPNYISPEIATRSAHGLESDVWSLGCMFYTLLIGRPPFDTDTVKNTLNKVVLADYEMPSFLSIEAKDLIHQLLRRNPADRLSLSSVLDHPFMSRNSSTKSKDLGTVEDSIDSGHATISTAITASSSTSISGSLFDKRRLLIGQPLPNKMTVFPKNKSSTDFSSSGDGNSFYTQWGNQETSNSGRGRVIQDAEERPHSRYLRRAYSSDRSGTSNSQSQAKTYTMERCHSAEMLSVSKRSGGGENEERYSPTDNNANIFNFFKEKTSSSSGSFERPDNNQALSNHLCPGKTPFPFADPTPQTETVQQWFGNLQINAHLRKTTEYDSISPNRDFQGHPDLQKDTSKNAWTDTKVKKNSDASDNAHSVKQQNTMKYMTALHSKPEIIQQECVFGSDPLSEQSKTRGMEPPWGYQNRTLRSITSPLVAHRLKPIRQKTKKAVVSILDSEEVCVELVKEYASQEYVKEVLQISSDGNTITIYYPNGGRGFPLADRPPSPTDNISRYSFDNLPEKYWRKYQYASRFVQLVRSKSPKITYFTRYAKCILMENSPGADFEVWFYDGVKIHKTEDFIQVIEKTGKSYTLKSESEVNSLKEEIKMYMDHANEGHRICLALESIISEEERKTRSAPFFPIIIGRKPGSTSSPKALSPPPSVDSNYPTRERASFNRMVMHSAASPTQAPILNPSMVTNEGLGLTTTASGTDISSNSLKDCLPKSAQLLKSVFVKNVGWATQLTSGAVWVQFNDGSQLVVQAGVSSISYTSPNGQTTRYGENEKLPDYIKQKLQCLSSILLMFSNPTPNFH

Experiment [8] deals with AP2-associated protein kinase 1 (Homo sapiens, UniProt Q2M2I8).
For experiment [9], the target named is Tyrosine-protein kinase ABL1 (Homo sapiens, UniProt P00519).
The target of experiment [10] is GTP-binding nuclear protein Ran (Homo sapiens, UniProt P62826).
The target in experiment [11] is T2, Ferrochelatase, mitochondrial (Homo sapiens, UniProt P22830).
T2 sequence (P22830 whole entry): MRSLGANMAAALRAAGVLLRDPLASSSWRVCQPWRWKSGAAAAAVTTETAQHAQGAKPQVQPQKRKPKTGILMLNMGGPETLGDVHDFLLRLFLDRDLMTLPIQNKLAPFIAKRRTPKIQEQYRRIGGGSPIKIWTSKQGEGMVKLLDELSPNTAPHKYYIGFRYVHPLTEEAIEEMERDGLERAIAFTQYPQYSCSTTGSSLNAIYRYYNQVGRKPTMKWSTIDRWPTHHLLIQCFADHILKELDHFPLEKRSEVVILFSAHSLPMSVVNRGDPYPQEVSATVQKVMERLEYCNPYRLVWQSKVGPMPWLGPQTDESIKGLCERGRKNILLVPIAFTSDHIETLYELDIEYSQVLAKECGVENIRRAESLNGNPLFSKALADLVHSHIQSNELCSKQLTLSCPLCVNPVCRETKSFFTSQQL

The target of experiment [12] is Maternal embryonic leucine zipper kinase (Homo sapiens, UniProt Q14680).
Experiment [13] concerns the target Guanine nucleotide-binding protein G(i) subunit alpha-2 (Homo sapiens, UniProt P04899).
Experiment [14] concerns the target Serine/threonine-protein kinase MRCK beta (Homo sapiens, UniProt Q9Y5S2).
Also: in the data inactive means no Kd found up to 30 µM.

Chain of Ribosomal protein S6 kinase alpha-1 (Q15418 whole entry): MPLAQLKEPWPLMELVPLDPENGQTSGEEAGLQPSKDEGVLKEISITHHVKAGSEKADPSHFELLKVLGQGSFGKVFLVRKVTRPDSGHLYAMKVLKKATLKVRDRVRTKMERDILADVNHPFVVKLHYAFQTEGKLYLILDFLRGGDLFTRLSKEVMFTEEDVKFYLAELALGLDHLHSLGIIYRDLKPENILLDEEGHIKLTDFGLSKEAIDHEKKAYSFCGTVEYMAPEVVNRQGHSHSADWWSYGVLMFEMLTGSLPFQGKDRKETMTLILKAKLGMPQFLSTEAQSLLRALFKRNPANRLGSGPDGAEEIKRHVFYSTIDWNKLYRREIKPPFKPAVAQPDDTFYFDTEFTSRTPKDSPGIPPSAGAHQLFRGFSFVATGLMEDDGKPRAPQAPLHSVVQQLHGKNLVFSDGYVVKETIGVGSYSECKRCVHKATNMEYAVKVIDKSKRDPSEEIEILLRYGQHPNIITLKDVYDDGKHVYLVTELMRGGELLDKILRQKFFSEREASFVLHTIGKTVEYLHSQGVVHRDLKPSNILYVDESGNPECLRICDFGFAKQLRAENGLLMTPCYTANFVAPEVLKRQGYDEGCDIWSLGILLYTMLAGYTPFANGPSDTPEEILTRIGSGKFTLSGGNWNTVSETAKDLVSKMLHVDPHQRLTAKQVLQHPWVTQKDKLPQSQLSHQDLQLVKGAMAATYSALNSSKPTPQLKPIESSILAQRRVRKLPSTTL
Chain of 26S proteasome regulatory subunit 6B (P43686 whole entry): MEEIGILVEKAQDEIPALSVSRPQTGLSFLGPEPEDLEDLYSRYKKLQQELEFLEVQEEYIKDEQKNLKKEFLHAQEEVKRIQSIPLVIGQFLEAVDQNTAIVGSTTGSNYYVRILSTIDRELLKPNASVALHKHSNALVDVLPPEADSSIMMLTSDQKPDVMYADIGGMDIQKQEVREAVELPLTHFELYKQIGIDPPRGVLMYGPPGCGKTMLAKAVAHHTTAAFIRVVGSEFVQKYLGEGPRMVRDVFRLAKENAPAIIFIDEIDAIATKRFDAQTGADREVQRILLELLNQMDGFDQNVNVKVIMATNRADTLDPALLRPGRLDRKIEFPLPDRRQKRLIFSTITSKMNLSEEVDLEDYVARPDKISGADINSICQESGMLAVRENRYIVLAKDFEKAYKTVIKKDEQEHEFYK
Chain of AP2-associated protein kinase 1 (Q2M2I8 whole entry): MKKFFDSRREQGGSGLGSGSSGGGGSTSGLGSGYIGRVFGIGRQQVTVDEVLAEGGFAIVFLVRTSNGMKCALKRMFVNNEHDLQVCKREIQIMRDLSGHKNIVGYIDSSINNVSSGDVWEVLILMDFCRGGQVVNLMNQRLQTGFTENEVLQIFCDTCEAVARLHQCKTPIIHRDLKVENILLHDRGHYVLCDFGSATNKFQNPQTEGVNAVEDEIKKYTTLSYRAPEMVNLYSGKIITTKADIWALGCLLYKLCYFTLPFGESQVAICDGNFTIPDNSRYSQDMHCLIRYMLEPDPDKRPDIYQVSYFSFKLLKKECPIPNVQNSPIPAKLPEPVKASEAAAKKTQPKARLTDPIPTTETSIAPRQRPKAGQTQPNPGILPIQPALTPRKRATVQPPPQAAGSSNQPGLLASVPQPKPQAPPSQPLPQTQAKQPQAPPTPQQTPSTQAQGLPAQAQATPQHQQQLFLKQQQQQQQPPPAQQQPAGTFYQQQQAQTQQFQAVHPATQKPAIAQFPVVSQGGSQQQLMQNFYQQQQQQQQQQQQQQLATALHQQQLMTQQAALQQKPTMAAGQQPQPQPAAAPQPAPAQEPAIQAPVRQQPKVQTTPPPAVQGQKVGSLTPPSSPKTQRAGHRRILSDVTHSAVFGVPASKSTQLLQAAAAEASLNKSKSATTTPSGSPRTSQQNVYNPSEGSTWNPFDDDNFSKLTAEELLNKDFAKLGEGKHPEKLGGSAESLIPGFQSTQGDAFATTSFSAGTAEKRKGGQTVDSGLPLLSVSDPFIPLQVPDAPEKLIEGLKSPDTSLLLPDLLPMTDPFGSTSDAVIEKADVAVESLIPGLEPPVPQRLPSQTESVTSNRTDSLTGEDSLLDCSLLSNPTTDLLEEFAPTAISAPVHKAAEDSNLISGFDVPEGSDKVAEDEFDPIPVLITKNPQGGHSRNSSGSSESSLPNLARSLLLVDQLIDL
Chain of Guanine nucleotide-binding protein G(i) subunit alpha-2 (P04899 whole entry): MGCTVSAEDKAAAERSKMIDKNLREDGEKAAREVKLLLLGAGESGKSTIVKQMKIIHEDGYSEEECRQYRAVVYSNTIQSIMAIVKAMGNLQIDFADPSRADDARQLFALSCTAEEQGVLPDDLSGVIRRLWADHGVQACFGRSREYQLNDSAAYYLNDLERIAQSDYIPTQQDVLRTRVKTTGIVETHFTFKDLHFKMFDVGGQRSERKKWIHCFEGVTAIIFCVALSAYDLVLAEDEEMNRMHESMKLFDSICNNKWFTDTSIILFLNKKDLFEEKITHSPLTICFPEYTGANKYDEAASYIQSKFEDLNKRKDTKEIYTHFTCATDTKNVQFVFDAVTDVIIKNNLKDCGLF
Chain of Serine/threonine-protein kinase MRCK beta (Q9Y5S2 whole entry): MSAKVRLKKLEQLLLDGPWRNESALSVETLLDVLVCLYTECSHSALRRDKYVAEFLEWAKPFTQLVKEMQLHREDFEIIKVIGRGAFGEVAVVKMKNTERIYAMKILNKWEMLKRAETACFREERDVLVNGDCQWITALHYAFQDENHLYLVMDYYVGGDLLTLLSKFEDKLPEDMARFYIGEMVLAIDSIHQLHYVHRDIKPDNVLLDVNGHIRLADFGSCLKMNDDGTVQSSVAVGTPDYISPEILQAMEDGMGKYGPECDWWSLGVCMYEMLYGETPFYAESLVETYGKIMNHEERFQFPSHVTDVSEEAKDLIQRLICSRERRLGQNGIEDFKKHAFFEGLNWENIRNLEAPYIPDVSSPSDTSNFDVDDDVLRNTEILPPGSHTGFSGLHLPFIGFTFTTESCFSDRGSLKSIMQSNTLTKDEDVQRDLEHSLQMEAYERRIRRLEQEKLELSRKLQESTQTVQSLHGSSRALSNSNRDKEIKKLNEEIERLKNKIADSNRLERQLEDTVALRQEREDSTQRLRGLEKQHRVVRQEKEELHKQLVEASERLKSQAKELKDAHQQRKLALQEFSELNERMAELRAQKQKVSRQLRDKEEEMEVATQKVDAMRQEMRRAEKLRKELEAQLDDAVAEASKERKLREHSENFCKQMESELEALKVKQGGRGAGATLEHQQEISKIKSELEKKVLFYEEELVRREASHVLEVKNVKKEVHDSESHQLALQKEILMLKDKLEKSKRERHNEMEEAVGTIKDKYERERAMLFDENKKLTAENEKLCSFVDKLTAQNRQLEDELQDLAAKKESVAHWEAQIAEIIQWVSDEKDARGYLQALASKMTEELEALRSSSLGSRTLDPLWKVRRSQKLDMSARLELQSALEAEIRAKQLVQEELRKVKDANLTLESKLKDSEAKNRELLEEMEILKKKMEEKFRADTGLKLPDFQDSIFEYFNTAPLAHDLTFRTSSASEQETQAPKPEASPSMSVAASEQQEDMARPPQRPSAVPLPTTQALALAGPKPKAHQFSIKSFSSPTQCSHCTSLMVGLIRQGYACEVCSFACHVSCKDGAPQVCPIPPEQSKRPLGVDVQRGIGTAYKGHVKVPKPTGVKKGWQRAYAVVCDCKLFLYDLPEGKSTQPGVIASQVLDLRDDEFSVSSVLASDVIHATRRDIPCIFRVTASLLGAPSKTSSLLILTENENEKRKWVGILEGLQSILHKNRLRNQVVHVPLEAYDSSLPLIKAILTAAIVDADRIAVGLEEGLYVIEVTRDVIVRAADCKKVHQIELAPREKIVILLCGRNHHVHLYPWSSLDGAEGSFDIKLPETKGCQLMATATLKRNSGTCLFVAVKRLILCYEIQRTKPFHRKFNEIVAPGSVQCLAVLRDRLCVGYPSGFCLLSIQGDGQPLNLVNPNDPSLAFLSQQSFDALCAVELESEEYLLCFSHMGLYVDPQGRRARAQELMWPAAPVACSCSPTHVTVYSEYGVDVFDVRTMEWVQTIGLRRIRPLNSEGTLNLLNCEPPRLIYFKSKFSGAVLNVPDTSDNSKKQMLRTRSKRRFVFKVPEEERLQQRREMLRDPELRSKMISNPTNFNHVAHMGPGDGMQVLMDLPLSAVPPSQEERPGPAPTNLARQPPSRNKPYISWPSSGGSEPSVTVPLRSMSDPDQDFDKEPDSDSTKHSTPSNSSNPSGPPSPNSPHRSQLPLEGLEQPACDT
Chain of Calcium/calmodulin-dependent protein kinase type II subunit delta (Q13557 whole entry): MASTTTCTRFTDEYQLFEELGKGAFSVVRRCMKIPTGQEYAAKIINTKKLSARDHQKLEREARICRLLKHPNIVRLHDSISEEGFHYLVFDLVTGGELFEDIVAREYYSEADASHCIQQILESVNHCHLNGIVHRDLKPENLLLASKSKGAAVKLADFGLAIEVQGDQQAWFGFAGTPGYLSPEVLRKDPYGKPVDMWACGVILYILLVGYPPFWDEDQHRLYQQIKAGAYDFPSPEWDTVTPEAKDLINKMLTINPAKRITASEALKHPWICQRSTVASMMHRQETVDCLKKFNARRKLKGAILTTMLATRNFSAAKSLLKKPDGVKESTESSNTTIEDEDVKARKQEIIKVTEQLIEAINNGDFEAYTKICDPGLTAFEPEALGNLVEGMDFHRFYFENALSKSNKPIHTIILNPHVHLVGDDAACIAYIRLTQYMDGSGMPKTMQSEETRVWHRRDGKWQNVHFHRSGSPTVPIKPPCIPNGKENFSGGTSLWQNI
Chain of Aurora kinase B (Q96GD4 whole entry, the tested form may be a part): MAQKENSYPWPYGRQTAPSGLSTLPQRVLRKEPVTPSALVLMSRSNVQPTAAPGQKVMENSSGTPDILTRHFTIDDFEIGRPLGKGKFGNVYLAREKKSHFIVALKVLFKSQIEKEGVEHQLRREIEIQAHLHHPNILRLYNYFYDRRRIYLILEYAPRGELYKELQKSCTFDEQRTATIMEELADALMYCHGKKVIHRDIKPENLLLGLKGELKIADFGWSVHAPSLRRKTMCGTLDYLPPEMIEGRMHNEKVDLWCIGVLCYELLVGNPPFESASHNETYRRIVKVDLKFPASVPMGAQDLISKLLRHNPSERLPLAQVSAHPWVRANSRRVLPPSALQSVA

As a reminder, the Kd is the constant that tells how readily two partners part at equilibrium. On to `C[C@H]1CNCCCN1S(=O)(=O)c1cccc2cncc(F)c12`, for which the Kd in experiment [1] was > 30 µM (inactive); in experiment [2] it was > 30 µM (inactive); on Aurora kinase B, 1.15 µM (active); in [3] it was 0.416 µM (active); on Actin-related protein 2 it was > 30 µM (inactive); in experiment [4], > 30 µM (inactive). The Kd in [5] was > 30 µM (inactive); in experiment [6] it was > 30 µM (inactive); in experiment [7] it was 8.14 µM (active); in [8] it was > 30 µM (inactive); in [9], > 30 µM (inactive); in experiment [10], > 30 µM (inactive). Also, the Kd (in experiment [11]; in [12]; in experiment [13]; at LIM domain kinase 2; in [14]) was > 30 µM (inactive) throughout.
In the case of `Cc1nc(NC(=O)N2CCC[C@H]2C(N)=O)sc1-c1ccnc(C(C)(C)C(F)(F)F)c1` [ALPELISIB], the Kd (in [1]; in experiment [2]; at Aurora kinase B; in experiment [3]; at Actin-related protein 2; in experiment [4]) was > 30 µM (inactive) each time. Also, the Kd in experiment [5], in [6], in [7], in [8], in experiment [9] and in experiment [10] was > 30 µM (inactive) throughout. Besides, the Kd (in [11]; in [12]; in experiment [13]; on LIM domain kinase 2; in experiment [14]) was > 30 µM (inactive) throughout.
`Cc1csc(-c2nnc(Nc3ccc(Oc4ncccc4-c4ccnc(N)n4)cc3)c3ccccc23)c1` [AMG-900]: the Kd in experiment [1] is > 30 µM (inactive); in [2] it was > 30 µM (inactive); at Aurora kinase B, 0.02 µM (active); in experiment [3], > 30 µM (inactive); on Actin-related protein 2, > 30 µM (inactive); in experiment [4] it was > 30 µM (inactive). The Kd was > 30 µM (inactive) in experiment [5]; > 30 µM (inactive) in [6]; > 30 µM (inactive) in experiment [7]; > 30 µM (inactive) in experiment [8]; 1.9 µM (active) in experiment [9]; > 30 µM (inactive) in experiment [10]. For the same compound, the Kd (in experiment [11]; in experiment [12]; in [13]; on LIM domain kinase 2; in [14]) was > 30 µM (inactive) in each case.
`COc1cc([C@@H]2c3cc4c(cc3[C@H](O)[C@H]3COC(=O)[C@@H]23)OCO4)cc(OC)c1OC` [AXL-1717]: the Kd (in experiment [1]; in experiment [2]; on Aurora kinase B; in experiment [3]; at Actin-related protein 2; in experiment [4]) was > 30 µM (inactive) each time. In addition, the Kd in experiment [5], in experiment [6], in experiment [7], in experiment [8], in experiment [9] and in experiment [10] was > 30 µM (inactive) in each case. In addition, the Kd (in [11]; in experiment [12]; in experiment [13]; on LIM domain kinase 2; in experiment [14]) was > 30 µM (inactive) in each case.
`NC(=O)Nc1cc(-c2cccc(F)c2)sc1C(=O)N[C@H]1CCCNC1` [AZD-7762]: the Kd is > 30 µM (inactive) in experiment [1]; > 30 µM (inactive) in [2]; 0.715 µM (active) on Aurora kinase B; 2.16 µM (active) in experiment [3]; > 30 µM (inactive) at Actin-related protein 2; > 30 µM (inactive) in [4]. Moreover, the Kd was > 30 µM (inactive) in experiment [5]; > 30 µM (inactive) in experiment [6]; 0.722 µM (active) in experiment [7]; 0.073 µM (active) in experiment [8]; 0.61 µM (active) in [9]; > 30 µM (inactive) in experiment [10]. In addition, the Kd in experiment [11] is > 30 µM (inactive); in [12], 4.53 µM (active); in [13] it was > 30 µM (inactive); on LIM domain kinase 2, > 30 µM (inactive); in experiment [14], > 30 µM (inactive).
On to `CCS(=O)(=O)N1CCN(c2ccc(Nc3ncc(C(N)=O)c(NC4CC4)n3)cc2)CC1` [Cerdulatinib Hydrochloride], for which the Kd in [1] was > 30 µM (inactive); in experiment [2], 0.356 µM (active); on Aurora kinase B, 3.79 µM (active); in [3] it was > 30 µM (inactive); in [4], > 30 µM (inactive); in [5], > 30 µM (inactive). Further, the Kd was 0.078 µM (active) in experiment [6]; > 30 µM (inactive) in [7]; 0.001 µM (active) in experiment [8]; > 30 µM (inactive) in [9]; > 30 µM (inactive) in experiment [10]; > 30 µM (inactive) in experiment [11]. Also, the Kd (in [12]; in experiment [13]; on LIM domain kinase 2; in experiment [14]) was > 30 µM (inactive) each time.
Turning to `Cc1nc(Nc2n[nH]c3c2CN(C(=O)N[C@H](CN(C)C)c2ccccc2)C3(C)C)c2sccc2n1` [PF-03758309], the Kd in experiment [2] is > 30 µM (inactive); on Aurora kinase B, 2.08 µM (active); at Actin-related protein 2, > 30 µM (inactive); in experiment [4], 0.82 µM (active); in experiment [5], > 30 µM (inactive); in experiment [6], > 30 µM (inactive). Also, the dissociation constant Kd in experiment [7] was 0.668 µM (active); in experiment [8], 3.04 µM (active); in [9], > 30 µM (inactive); in [10], > 30 µM (inactive); in experiment [11] it was > 30 µM (inactive); in experiment [12], 0.057 µM (active). The Kd (in [13]; at LIM domain kinase 2; in experiment [14]) was > 30 µM (inactive) throughout.
Consider `Cn1ncc(Cl)c1-c1cc(C(=O)N[C@H](CN)Cc2ccc(F)c(F)c2)oc1Cl` [UPROSERTIB], for which the Kd in experiment [1] is > 30 µM (inactive); in experiment [2] it was > 30 µM (inactive); at Aurora kinase B it was > 30 µM (inactive); in experiment [3] it was 0.076 µM (active); in experiment [4], > 30 µM (inactive); in experiment [5], > 30 µM (inactive). Besides, the Kd in experiment [6], in experiment [7], in experiment [8], in experiment [9], in experiment [10] and in experiment [11] was > 30 µM (inactive) throughout. In addition, the Kd is 0.24 µM in experiment [12], > 30 µM (inactive) in [13], > 30 µM (inactive) at LIM domain kinase 2 and > 30 µM (inactive) in [14].
